The test system of one test is A549. Put plainly: Cell cytotoxicity assay (CCK8). The format is cell-based, human. As to conditions: Homo sapiens, A549; CCK8, 48 h treatment. On the procedure: (§1) The cell growth effect of BMPQ-1 against different cell lines were tested via measuring the quantity of living cells using the Cell Counting Kit-8 (CCK8) (DOJINDO, Japan) according to the instruction. Cells were seeded in a 96-well plate (5 × 10^3 cells/well) and grown for 24 h for attachment. Then the cells were treated with various concentrations of BMPQ-1 and incubated at 37°C with 5% CO2 for 48 h. After incubation, the old medium was discarded followed by adding fresh medium containing 10% FBS in DMEM. Then 100 μl CCK-8 (10% in grow medium) was added into each well, and the cells were further incubated for 1 h. The optical density (OD) was detected at 450 nm by an automated microplate reader (Bio-Rad). The IC50 values were derived from the curves of the mean percentage of survival against the drug concentration. All the experiments were performed in triplicate.
(§2) A Cell Counting Kit-8 (CCK8) (DOJINDO, Japan) was employed to evaluate the cytotoxicity of BMPQ-1 on human alveolar basal epithelial cancer cell line (A549), human hepatocellular carcinoma cancer cell line (HepG2), human gastric cancer cell line (MGC-803), human colon adenocarcinoma (HT29), human normal liver Cells (HL-7702).

The test system of the next test is HT29. Put plainly: Cell cytotoxicity assay (CCK8). Conditions: Homo sapiens, HT-29; CCK8, 48 h treatment. Format: cell-based, human. As to the method:
as §1, §2

The test system of the next test is HepG2. Put plainly: Cell cytotoxicity assay (CCK8). Format: cell-based, human. As to conditions: Homo sapiens, HepG2; CCK8, 48 h treatment. On the procedure:
as §1, §2

Another test deals with MGC-803. Put plainly: Cell cytotoxicity assay (CCK8). Format: cell-based, human. As to conditions: Homo sapiens, MGC-803; CCK8, 48 h treatment. On the procedure:
as §1, §2

A further test relates to tumor cell. Put plainly: Tumor cell proliferation (summary statement). The format is cell-based. Conditions: summary value, abstract/introduction. As to the method: as §1
The next test relates to A549 cells. Put plainly: Cell cycle analysis by flow cytometry (PI). The format is cell-based, human. Conditions: A549, 3 μM, 24 h; control 10.4%. As to the method: A549 cells treated with BMPQ-1 were harvested and washed in PBS and fixed with 70% ethanol at 4°C overnight. Then, the cells were centrifuged and re-suspended in a staining solution (50 μg/mL propidium iodide (PI), 75 KU/ml RNase A in PBS) for 30 min at room temperature in the dark. The cells were analyzed by flow cytometer (BD FacsAria, USA). For each analysis, 2.0 × 10^4 events were collected.
Figure S9. BMPQ-1 induced A549 cell cycle arrest. (A) The cell cycle analysis of A549 cells after 24 h treatment with BMPQ-1. The cells were collected and stained with propidium iodide (PI). (B) Percentage of A549 cells in different phases of the cell cycle. […]
different from the control. […]
On the technique in general: In flow cytometry, cells or beads pass a laser one at a time.

The target of another test is TTA45. Briefly: smFRET analysis of TTA45 conformational ensemble. Format: binding, human. As to conditions: from high-FRET population against BMPQ-1 concentration; read-out: dissociation constant (KD). As to the method:
5′- FAM and 3′-Cy5 labeled TTA45 oligonucleotides were annealed in the buffer of 10 mM Tris–HCl (pH 7.4) and 100 mM KCl, by heating to 95°C for 5 min and slowly cooling down to room temperature. smFRET data collection and analysis were performed as previously described ([43]). In brief, an A1 confocal microscope (Nikon, Japan) coupled to two picosecond pulsed diode laser heads (LDH-P-C-485B and LDH-P-C-640B, PicoQuant, Germany) and two SPCM-AQRH detectors (Excelitas, Canada) was used for fluorescence excitation and emission detection. A 60 × water immersion objective (WI 60×, NA 1.20, Nikon, Japan) was used for confocal laser microscopy, and the pinhole size was set at ∼100 μm. The laser power before the objective was set at ∼100 μW for the 485-nm laser and ∼35 μW for the 640-nm laser. […]
The smFRET measurements were performed at room temperature in pH 7.4 buffer containing 10 mM Tris–HCl, 100 mM KCl, and 0.01% (v/v) Tween 20, with additional 1 mM ascorbic acid and 1 mM methylviologen for photo bleaching and blinking minimization ([44]). […] The exact FRET efficiencies were calculated based on our calibrated parameters for the instrument and fluorophores, and the FRET efficiency distribution was analyzed with a multi-Gaussian mixture using a handwritten script.

Test [1] relates to TTA57/T5 (DNA, G4) GGGTTAGGGTTAGGGTTAGGGTTATTATTATTATTAGGGTTAGGGTTAGGGTTAGGG
Briefly: fluorescence titration. Conditions: 100 mM K+ (KCl) plus potassium phosphate; 10 mM K2HPO4/KH2PO4 pH 7.0; 3 µM compound, DNA 0-10 µM; weaker than TTA45.

As usually defined, the IC50 is the concentration at which inhibition is half-maximal. High values mean weaker potency in that assay, low ones greater potency in that assay. Usually Kd stands for a measure of binding affinity in units of concentration. With `Cc1ccc(Cn2cc3c(-c4ccc5c(c4)OCO5)nnc-3c3cc4c(cc32)OCO4)cc1` [BMPQ-1], the IC50 with A549 is 1460 ± 160 nM; in the test with HT29, 1400 ± 60 nM; with HepG2, 2140 ± 260 nM; in the test with MGC-803 it was 2360 ± 480 nM; in the test on tumor cell it was approximately 1000 nM. In addition, the “percentage of G2/M phase” value with A549 cells worked out at 17.8%. The Kd at TTA45 was found to be 530 nM. In addition, the binding result in test [1] was “yes”.

The record behind these values is PMC7672424 (Nucleic Acids Research, 2020).
